Values after ≈ are worked out from the molar mass of the structure shown. Like-named read-outs stand apart in the source and are kept apart here.
Columns and labels:
M. smegmatis mc^2 155 = experiment: Minimum inhibitory concentration, broth micro dilution; format: cell-based, Mycobacterium smegmatis; conditions: Mycolicibacterium smegmatis, MC^2155; M. smegmatis growth, 24 h; read-out: MIC50 [μM], bacterial growth
[1] = target: F-ATP synthase of inverted membrane vesicles (IMV) of M. smegmatis; experiment: ATP synthesis assay with inverted membrane vesicles; conditions: read-out: IC50 [μM], effect on ATP synthesis, IMVs of M. smegmatis
M. bovis BCG = experiment: microbe, parasite or virus in culture; format: cell-based, Mycobacterium bovis; conditions: for ATP synthesis (luminescence): FIG. 3C; for IC50: Mycobacterium tuberculosis variant bovis BCG, BCG, FIG. 3D
[2] = system: extracellular oxygen consumption; experiment: Oxygen consumption rate; format: cell-based
IMVs of M. phlei = conditions: reported [1], read-out: IC50, ATP synthesis; cited from earlier work
[3] = Mouse liver microsome stability; format: in vitro ADME; conditions: for half-life: mouse, liver microsomes

F-ATP synthase of inverted membrane vesicles (IMV) of M. smegmatis, sequence (A0R203 whole entry): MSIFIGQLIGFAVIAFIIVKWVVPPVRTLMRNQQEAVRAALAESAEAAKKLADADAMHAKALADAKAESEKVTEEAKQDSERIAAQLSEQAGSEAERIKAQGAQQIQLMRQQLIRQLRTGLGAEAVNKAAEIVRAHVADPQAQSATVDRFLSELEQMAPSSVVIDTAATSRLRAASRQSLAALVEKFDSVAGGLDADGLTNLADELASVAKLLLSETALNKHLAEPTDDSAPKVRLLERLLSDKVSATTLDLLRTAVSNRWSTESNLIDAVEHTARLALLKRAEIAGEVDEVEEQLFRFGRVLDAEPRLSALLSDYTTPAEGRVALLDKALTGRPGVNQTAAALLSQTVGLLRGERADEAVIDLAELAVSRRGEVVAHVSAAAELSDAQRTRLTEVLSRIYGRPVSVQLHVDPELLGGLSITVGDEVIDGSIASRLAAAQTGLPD
F-ATP synthase of inverted membrane vesicles (IMV) of M. smegmatis, sequence (A0R1Z9 whole entry, further chain): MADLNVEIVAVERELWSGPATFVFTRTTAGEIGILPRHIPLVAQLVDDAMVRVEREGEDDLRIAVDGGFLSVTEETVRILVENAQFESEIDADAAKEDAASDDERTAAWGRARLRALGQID
F-ATP synthase of inverted membrane vesicles (IMV) of M. smegmatis, sequence (A0R200 whole entry, further chain): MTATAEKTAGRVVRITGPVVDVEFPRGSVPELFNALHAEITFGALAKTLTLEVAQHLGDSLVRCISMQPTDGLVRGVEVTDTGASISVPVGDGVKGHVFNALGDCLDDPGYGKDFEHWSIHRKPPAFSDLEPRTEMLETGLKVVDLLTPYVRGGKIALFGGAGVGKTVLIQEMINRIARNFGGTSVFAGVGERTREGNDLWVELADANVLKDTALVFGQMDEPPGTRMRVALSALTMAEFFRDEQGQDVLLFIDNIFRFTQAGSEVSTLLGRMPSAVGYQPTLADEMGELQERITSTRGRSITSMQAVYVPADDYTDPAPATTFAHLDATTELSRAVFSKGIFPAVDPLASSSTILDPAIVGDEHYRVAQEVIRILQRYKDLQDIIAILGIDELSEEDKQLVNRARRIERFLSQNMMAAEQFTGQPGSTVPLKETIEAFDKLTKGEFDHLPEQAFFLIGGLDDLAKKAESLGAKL
F-ATP synthase of inverted membrane vesicles (IMV) of M. smegmatis, sequence (A0R201 whole entry, further chain): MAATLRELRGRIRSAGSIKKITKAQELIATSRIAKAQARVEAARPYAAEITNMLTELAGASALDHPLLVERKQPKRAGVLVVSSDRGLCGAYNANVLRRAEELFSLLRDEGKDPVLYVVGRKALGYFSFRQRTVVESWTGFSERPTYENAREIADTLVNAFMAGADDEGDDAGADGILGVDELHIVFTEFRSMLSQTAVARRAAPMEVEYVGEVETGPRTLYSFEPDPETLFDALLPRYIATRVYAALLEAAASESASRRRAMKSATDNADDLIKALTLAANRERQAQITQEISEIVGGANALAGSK
F-ATP synthase of inverted membrane vesicles (IMV) of M. smegmatis, sequence (A0R202 whole entry, further chain): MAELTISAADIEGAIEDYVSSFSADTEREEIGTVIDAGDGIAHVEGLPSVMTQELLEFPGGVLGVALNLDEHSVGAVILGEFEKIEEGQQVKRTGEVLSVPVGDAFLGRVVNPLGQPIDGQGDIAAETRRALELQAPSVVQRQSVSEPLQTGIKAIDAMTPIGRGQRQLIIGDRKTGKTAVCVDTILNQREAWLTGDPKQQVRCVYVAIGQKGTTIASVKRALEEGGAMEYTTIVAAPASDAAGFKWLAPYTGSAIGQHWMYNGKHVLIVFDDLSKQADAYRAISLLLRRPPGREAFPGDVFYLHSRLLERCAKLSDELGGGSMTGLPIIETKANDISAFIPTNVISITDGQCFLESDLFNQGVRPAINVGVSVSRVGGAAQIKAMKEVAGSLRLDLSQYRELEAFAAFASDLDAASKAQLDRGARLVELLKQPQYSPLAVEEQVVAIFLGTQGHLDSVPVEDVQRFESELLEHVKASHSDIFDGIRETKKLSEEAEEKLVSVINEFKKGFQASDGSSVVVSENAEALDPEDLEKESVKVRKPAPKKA

Compound CCNc1cc(C)nc(Nc2ccc(NC(=O)c3cccc(O)c3)cc2)n1 [3OH U Et, N-(4-((4-(ethylamino)-6-methylpyrimidin-2-yl)amino)phenyl)-3-hydroxybenzamide] has an MIC50 (M. smegmatis mc^2 155) of 79.6 ± 9.13 µM (≈ 28.9 µg/mL), a melting point of 283 to 285 °C and an IC50 [1] of 1.16 ± 0.09 µM.
Compound CCNc1cc(C)nc(Nc2ccc(NC(=O)c3ccc(C)cc3)cc2)n1 [4Me U Et, N-(4-((4-(ethylamino)-6-methylpyrimidin-2-yl)amino)phenyl)-4-methylbenzamide] has an MIC50 (M. smegmatis mc^2 155) of 31.8 ± 7.8 µM (≈ 11.5 µg/mL), a melting point of 297 to 300 °C and an IC50 [1] of 0.39 ± 0.02 µM.
For CCNc1cc(C)nc(Nc2ccc(NC(=O)c3ccc(OC)cc3)cc2)n1 [4OMe U Et, N-(4-((4-(ethylamino)-6-methylpyrimidin-2-yl)amino)phenyl)-4-methoxybenzamide], the MIC50 (M. smegmatis mc^2 155) was 17.3 ± 2.26 µM (≈ 6.52 µg/mL), the “whole cell ATP synthesis inhibition versus drug free control” value (M. bovis BCG; analog in combination with BDQ, FIG. 6A, 6B) was “significant increase in the inhibition” and the melting point was 285 to 288 °C. The IC50 [1] was 0.69 ± 0.06 µM.
In the case of COc1nc2ccc(Br)cc2cc1[C@@H](c1ccccc1)[C@@](O)(CCN(C)C)c1cccc2ccccc12 [BDQ, 1-(6-bromo-2-methoxy-quinolin-3-yl)-4-dimethylamino-2-naphthalen-1-yl-1-phenyl-butan-2-ol], the “ATP synthesis (luminescence)” value (M. bovis BCG; 12.5 nM BDQ in the presence of 37.5 μM of cpd 6) is reported as 6.5×10^3 RLU, the “ATP synthesis (luminescence)” value (M. bovis BCG; BDQ alone at 200 nM, drug-free 3.7×10^4 RLU) is reported as 8×10^3 RLU and the IC50 (M. bovis BCG; read-out: IC50 value of BDQ, BDQ alone) is reported as 42 nM. For the same compound, the IC50 (M. bovis BCG; read-out: IC50 value of BDQ, in combination with cpd 6) was 2.36 nM, the “concentration inhibiting extracellular oxygen consumption” value ([2]; BDQ alone) was “about 500 nM” and the “concentration needed for similar inhibition of oxygen consumption” value ([2]; BDQ in combination with 40 μM of cpd 6) was 50 nm. For the same compound, the IC50 (IMVs of M. phlei) was 20 to 25 nM.
In the case of Cc1cc(NCCO)nc(Nc2ccc(NC(=O)c3cccc(Br)c3)cc2)n1 [Br EtOH], the MIC50 (M. smegmatis mc^2 155) is reported as 19 ± 1.5 µM (≈ 8.41 µg/mL), the melting point is reported as 237 to 241 °C and the IC50 [1] is reported as 0.42 ± 0.03 µM.
With CCOC(=O)CNc1cc(C)nc(Nc2ccc(NC(=O)c3cccc(Br)c3)cc2)n1 [Br Gly, ethyl (2-((4-(3-bromobenzamido)phenyl)amino)-6-methylpyrimidin-4-yl)glycinate] the MIC50 (M. smegmatis mc^2 155) was 15.5 ± 1.52 µM (≈ 7.53 µg/mL), the melting point was over 230 °C and the IC50 [1] was 2.01 ± 0.16 µM.
CNc1cc(C)nc(Nc2ccc(NC(=O)c3cccc(Br)c3)cc2)n1 [Br Me, 3-bromo-N-(4-((4-methyl-6-(methylamino)pyrimidin-2-yl)amino)phenyl)benzamide] gave an MIC50 (M. smegmatis mc^2 155) of 12.4 ± 0.56 µM (≈ 5.11 µg/mL), a melting point of 301 to 303 °C and an IC50 [1] of 0.39 ± 0.06 µM.
CCNc1nc(Nc2ccc(NC(=O)c3cccc(Br)c3)cc2)ncc1C [Br T Et, 3-bromo-N-(4-((4-(ethylamino)-5-methylpyrimidin-2-yl)amino)phenyl)benzamide] gave an MIC50 (M. smegmatis mc^2 155) of 12.3 ± 0.73 µM (≈ 5.25 µg/mL), a melting point of over 230 °C and an IC50 [1] of 0.62 ± 0.08 µM.
CCNc1nc(C)cc(Nc2ccc(NC(=O)c3cccc(Br)c3)cc2)n1 [Br U Et iso (Cpd 6 iso), 3-bromo-N-(4-((2-(ethylamino)-6-methylpyrimidin-4-yl)amino)phenyl)benzamide] gave an MIC50 (M. smegmatis mc^2 155) of 20.8 ± 1.9 µM (≈ 8.88 µg/mL), a melting point of 260 to 264 °C and an IC50 [1] of 0.38 ± 0.03 µM.
In the case of CCNc1ccnc(Nc2ccc(NC(=O)c3cccc(Br)c3)cc2)n1 [Br desMe, 3-bromo-N-(4-((4-(ethylamino)pyrimidin-2-yl)amino)phenyl)benzamide], the MIC50 (M. smegmatis mc^2 155) is reported as 16.8 ± 2.6 µM (≈ 6.93 µg/mL), the melting point is reported as 229 to 231 °C and the IC50 [1] is reported as 1.03 ± 0.25 µM.
Cc1cc(NC(C)C)nc(Nc2ccc(NC(=O)c3cccc(Br)c3)cc2)n1 [Br iso, 3-bromo-N-(4-((4-(isopropylamino)-6-methylpyrimidin-2-yl)amino)phenyl)benzamide] gave an MIC50 (M. smegmatis mc^2 155) of 50.1 ± 4.5 µM (≈ 22.1 µg/mL), a melting point of 183 to 185 °C and an IC50 [1] of 2.69 ± 0.21 µM.
CCNc1cc(C)nc(Nc2ccc(NC(=O)c3cccc(Br)c3)cc2)n1 [Cpd 6, 3-bromo-N-(4-((4-(ethylamino)-6-methylpyrimidin-2-yl)amino)phenyl)benzamide] gave a microsomal CLint ([3]; mouse liver microsomes) of 14.6 µL/min/mg, a half-life ([3]; read-out: T½) of 47.5 min and a half-life ([3]; without NADPH, read-out: T½ w/o NADPH) of 68 min.
CCNc1nc(Nc2ccc(NC(=O)c3cccc(F)c3)cc2)ncc1C [F T Et, N-(4-((4-(ethylamino)-5-methylpyrimidin-2-yl)amino)phenyl)-3-fluorobenzamide] gave an MIC50 (M. smegmatis mc^2 155) of 43.5 ± 3.57 µM (≈ 15.9 µg/mL) and an IC50 [1] of 0.92 ± 0.04 µM.
Compound CCNc1cc(C)nc(Nc2ccc(NC(=O)c3cccc(F)c3)cc2)n1 [F U Et, N-(4-((4-(ethylamino)-6-methylpyrimidin-2-yl)amino)phenyl)-3-fluorobenzamide] has an MIC50 (M. smegmatis mc^2 155) of 18.7 ± 1.25 µM (≈ 6.84 µg/mL), a melting point of 259 to 263 °C and an IC50 [1] of 0.26 ± 0.05 µM.
In the case of CCNc1nc(Nc2ccc(NC(=O)c3ccccc3)cc2)ncc1C [H T Et, N-(4-((4-(ethylamino)-5-methylpyrimidin-2-yl)amino)phenyl)benzamide], the MIC50 (M. smegmatis mc^2 155) is reported as 39 ± 1.91 µM (≈ 13.5 µg/mL), the melting point is reported as over 230 °C and the IC50 [1] is reported as 0.9 ± 0.06 µM.
CCNc1cc(C)nc(Nc2ccc(NC(=O)c3ccccc3)cc2)n1 [H U Et, N-(4-((4-(ethylamino)-6-methylpyrimidin-2-yl)amino)phenyl)benzamide] gave an MIC50 (M. smegmatis mc^2 155) of 26.9 ± 1.39 µM (≈ 9.36 µg/mL), a melting point of 225 to 226 °C and an IC50 [1] of 1.65 ± 0.16 µM.
For CCc1nc2ccc(Cl)cn2c1C(=O)NCc1ccc(N2CCC(c3ccc(OC(F)(F)F)cc3)CC2)cc1 [Q203, 6-chloro-2-ethyl-N-[[4-[4-[4-(trifluoromethoxy)phenyl]piperidin-1-yl]phenyl]methyl]imidazo[1,2-a]pyridine-3-carboxamide], the “effect of Q203 in the presence of cpd 6” value (M. bovis BCG; ATP synthesis, FIG. 3E) was “additive effect” and the “concentration for complete inhibition of oxygen consumption” value ([2]; Q203 in combination with 40 μM of cpd 6) was 100 nM.

Reference: patent US11078165B2 (priority 2017, dated 2021)
